The source of these data is patent US20240287025A1, “TETRAHYDROQUINOLINE (THQ) COUMPOUNDS” (Centre National de la Recherche Scientifique, priority 2021, published 2024).

Where only a bound is given, the exact number is not on record here.

Experiment [1] concerns the target Brd4 BD1 (Homo sapiens (Human), UniProt O60885). Nature of the experiment: HTRF evaluation of bromodomain inhibitors, Brd4 BD1. It is filed as binding. Particulars: H4ac4 peptide 50 nM, 4 h at 4° C. On the procedure:
(§1) HTRF reagents and buffers were purchased from Cisbio Bioassays. The assay used a terbium (Ill) cryptate donor reagent conjugated to an anti-GST antibody (MAb anti-GST-Tb; GSTTLA), a streptavidin-conjugated acceptor reagent (streptavidin-d2) and Cisbio proprietary buffers (EPlgeneous Binding Domain Diluent and Detection buffer, respectively). GST-tagged bromodomains (BDs) were expressed in E. coli and purified using standard procedures. Incubation of GST-tagged BDs with biotinylated acetylated H4 peptide (H4K5acK8acK12acK16ac, here named H4ac4) brings the donor and acceptor into close proximity and allows for a FRET reaction. GST-tagged proteins in 25 mM Hepes pH 7.5, 150 mM NaCl, 0.5 mM DTT were assayed at a final concentration of 5 nM. Biotinylated H4ac4 peptides were used at a final concentration of 50, 600 nM in assays involving Brd4 BD1, Brd4 BD2, respectively. The antibody-conjugated donor was used at 0.5 nM and the streptavidin-conjugated acceptor was used at ⅛ of the H4ac4 peptide concentration. Inhibitors were tested by performing an eleven-point dilution series with a maximal final concentration of […]. These concentrations allowed a fixed DMSO concentration at 0.2%, critical for a Z′ factor ≥0.8. Components were incubated at 4° C. for 4 h (BD1) or for 24 h (BD2). Experiments were performed in 384-well white plates (Greiner ref. 781080) and analyzed in a ClarioStar plate reader (BMG LABTECH, excitation at 330 nm and emission at 620 and 665 nm, corresponding to the donor and acceptor emission peaks, respectively; the 665/620 ratio is used to calculate the specific HTRF signal) with an integration delay of 60 μs and an integration time of 400 μs.
(In general: Time-resolved FRET reads energy transfer from a long-lived donor to a nearby acceptor.)

Experiment [2] concerns the target Brd4 BD2 (Homo sapiens (Human), UniProt O60885). As to the kind of experiment: HTRF evaluation of bromodomain inhibitors, Brd4 BD2. It is filed as binding. Particulars: for IC50: HTRF, H4ac4 peptide 600 nM, 24 h at 4° C.; for Selectivity BD2/BD1: ratio of the BD1 and BD2 IC50. On the procedure: as §1

Regarding `CC[C@H]1[C@@H](C)[C@H](n2cc(COCCOCCOCCOCCOCc3cn(C4c5cc(C(=O)OC)ccc5N(C(C)=O)[C@@H](CC)[C@H]4C)nn3)nn2)c2cc(C(=O)OC)ccc2N1C(C)=O` (stereo partly drawn) [XX, Dimethyl-4,4′-((2,5,8,11,14-pentaoxapentadecane-1,15-diyl)bis(1H-1,2,3-triazole-4,1-diyl))(2S,2'S,3R,3′R,4S,4'S)-bis(1-acetyl-2-ethyl-3-methyl-1,2,3,4-tetrahydroquinoline-6-carboxylate)], in experiment [1], the IC50 was 1470 nM. Moreover, in experiment [2], 129 nM corresponded to half-maximal inhibition (IC50) and the “Selectivity BD2/BD1” value was 11.5.

On to `CC[C@H]1[C@@H](C)C(n2cc(COCCOCCOCCOCCOCCOCc3cn(C4c5cc(C(=O)OC)ccc5N(C(C)=O)[C@@H](CC)[C@H]4C)nn3)nn2)c2cc(C(=O)OC)ccc2N1C(C)=O` (stereo partly drawn) [XY, Dimethyl-4,4′-((2,5,8,11,14,17-hexaoxaoctadecane-1,18-diyl)bis(1H-1,2,3-triazole-4,1-diyl))(2S,2'S,3R,3′R,4S,4'S)-bis(1-acetyl-2-ethyl-3-methyl-1,2,3,4-tetrahydroquinoline-6-carboxylate)], for which the IC50 was 1560 nM in experiment [1] and 95 nM in experiment [2]. The “Selectivity BD2/BD1” value in experiment [2] is recorded as 16.4.

`CCCCCc1cn([C@@H]2c3cc(C(F)(F)F)ccc3N(C(C)=O)[C@@H](CC)[C@H]2C)nn1` [YD, 1-((2S,3R,4S)-2-ethyl-3-methyl-4-(4-pentyl-1H-1,2,3-triazol-1-yl)-6-(trifluoromethyl)-3,4-dihydroquinolin-1(2H)-yl)ethan-1-one] had an IC50 in experiment [1] of 41800 nM. Moreover, in experiment [2], the IC50 was found to be 5710 nM and the “Selectivity BD2/BD1” value is on record as 7.3.

As to `CC[C@@H]1[C@H](C)[C@@H](Nc2ncc(Cl)cn2)c2cc(C(=O)OC)ccc2N1C(C)=O` [ent-XL], the IC50 in experiment [1] was greater than 100000 nM; in experiment [2], 7440 nM.

Regarding `C=CCCCC(=O)Nc1ccc(-c2ccc3c(c2)[C@@H](n2cc(CCCCC)nn2)[C@H](C)[C@H](CC)N3C(C)=O)cc1` [XE, N-(4-((2S,3R,4S)-1-acetyl-2-ethyl-3-methyl-4-(4-pentyl-1H-1,2,3-triazol-1-yl)-1,2,3,4-tetrahydroquinolin-6-yl)phenyl)hex-5-enamide], 4080 nM corresponded to half-maximal inhibition in experiment [1] (IC50). Further, in experiment [2], the concentration for half-maximal inhibition (IC50) came out at 3180 nM and the “Selectivity BD2/BD1” value was determined as 1.3.

As to `C=CCCCC(=O)Nc1ccc(-c2ccc3c(c2)[C@H](N=[N+]=[N-])[C@@H](C)[C@@H](CC)N3C(C)=O)cc1` [ent-XC], the 50% inhibitory concentration (IC50) in experiment [1] was found to be 22400 nM; in experiment [2], 4430 nM. Moreover, the “Selectivity BD2/BD1” value in experiment [2] stood at 5.1.

`CC[C@H]1[C@@H](C)[C@H](n2cc(COCCOCC#Cc3cccc4c3CN(C3CCC(=O)NC3=O)C4=O)nn2)c2cc(C(=O)OC)ccc2N1C(C)=O` (stereo partly drawn) [YE, Methyl-(2S,3R,4S)-1-acetyl-4-(4-((2-((3-(2-(2,6-dioxopiperidin-3-yl)-1-oxoisoindolin-4-yl)prop-2-yn-1-yl)oxy)ethoxy)methyl)-1H-1,2,3-triazol-1-yl)-2-ethyl-3-methyl-1,2,3,4-tetrahydroquinoline-6-carboxylate]: in experiment [1], half-maximal inhibition (IC50) required 7870 nM. In experiment [2], the IC50 came to 486 nM and the “Selectivity BD2/BD1” value was determined as 16.2.

`CC[C@H]1[C@@H](C)[C@H](n2cc(-c3ccccc3)nn2)c2cc(C(F)(F)F)ccc2N1C(C)=O` [YC, 1-((2S,3R,4S)-2-Ethyl-3-methyl-4-(4-phenyl-1H-1,2,3-triazol-1-yl)-6-(trifluoromethyl)-3,4-dihydroquinolin-1(2H)-yl)ethan-1-one] had an IC50 in experiment [2] of 22500 nM.

Consider `CC[C@H]1[C@@H](C)[C@H](n2cc(-c3ccc(C(F)(F)F)cc3)nn2)c2cc(C(=O)OC)ccc2N1C(C)=O` [XN, Methyl (2S,3R,4S)-1-acetyl-2-ethyl-3-methyl-4-(4-(4-(trifluoromethyl)phenyl)-1H-1,2,3-triazol-1-yl)-1,2,3,4-tetrahydroquinoline-6-carboxylate], for which the half-maximal inhibitory concentration (IC50) was 14500 nM in experiment [1] and 1910 nM in experiment [2]. Also, the “Selectivity BD2/BD1” value in experiment [2] came out at 7.6.

`CC[C@H]1[C@@H](C)C(n2cc(COCCOCc3cn(C4c5cc(C(=O)OC)ccc5N(C(C)=O)[C@@H](CC)[C@H]4C)nn3)nn2)c2cc(C(=O)OC)ccc2N1C(C)=O` (stereo partly drawn) [XU, Dimethyl-4,4′-(((ethane-1,2-diylbis(oxy))bis(methylene))bis(1H-1,2,3-triazole-4,1-diyl))(2S,2'S,3R,3′R,4S,4'S)-bis(1-acetyl-2-ethyl-3-methyl-1,2,3,4-tetrahydroquinoline-6-carboxylate)]: the half-maximal inhibitory concentration (IC50) in experiment [1] came to 247 nM. In experiment [2], inhibition was half-maximal at 57 nM (IC50) and the “Selectivity BD2/BD1” value came out at 4.3.

In experiment [1], `CC[C@H]1[C@@H](C)[C@H](NC(=O)OC(C)C)c2cc(C(=O)OC)ccc2N1C(C)=O` [XJ, Methyl-(2S,3S,4S)-1-acetyl-2-ethyl-4-((isopropoxycarbonyl)amino)-3-methyl-1,2,3,4-tetrahydroquinoline-6-carboxylate] yielded an IC50 of 24200 nM. In experiment [2], the IC50 is 1880 nM and the “Selectivity BD2/BD1” value was determined as 12.8.

The compound `CC[C@H]1[C@@H](C)[C@H](n2cc(COCCOCCOCCOCC#Cc3cccc4c3CN(C3CCC(=O)NC3=O)C4=O)nn2)c2cc(C(=O)OC)ccc2N1C(C)=O` (stereo partly drawn) [YF, Methyl-(2S,3R,4S)-1-acetyl-4-(4-(14-(2-(2,6-dioxopiperidin-3-yl)-1-oxoisoindolin-4-yl)-2,5,8,11-tetraoxatetradec-13-yn-1-yl)-1H-1,2,3-triazol-1-yl)-2-ethyl-3-methyl-1,2,3,4-tetrahydroquinoline-6-carboxylate] yielded a 50% inhibitory concentration (IC50) in experiment [1] of 17000 nM. In experiment [2], half-maximal inhibition (IC50) required 1330 nM and the “Selectivity BD2/BD1” value amounted to 12.7.

In experiment [1], `C=CCCCC(=O)Nc1ccc(-c2ccc3c(c2)[C@@H](N=[N+]=[N-])[C@H](C)[C@H](CC)N3C(C)=O)cc1` [XC, N-(4-((2S,3R,4S)-1-acetyl-4-azido-2-ethyl-3-methyl-1,2,3,4-tetrahydroquinolin-6-yl)phel)hex-5-enamide] came in with an IC50 of 3100 nM. Also, in experiment [2], the IC50 was 2230 nM and the “Selectivity BD2/BD1” value stood at 1.4.

In the case of `CCCCCc1cn([C@H]2c3cc(C(=O)OC)ccc3N(C(C)=O)[C@H](CC)[C@@H]2C)nn1` [ent-XF], the half-inhibitory concentration (IC50) in experiment [1] came to 6300 nM. In addition, in experiment [2], the IC50 was 8330 nM and the “Selectivity BD2/BD1” value amounted to 0.8.

Turning to `CC[C@H]1[C@@H](C)[C@H](N=[N+]=[N-])c2cc(C(=O)OC)ccc2N1C(C)=O` [Compound 27, Methyl-(2S,3R,4S)-1-acetyl-4-azido-2-ethyl-3-methyl-1,2,3,4-tetrahydroquinoline-6-carboxylate], it took 17700 nM to reach half-maximal inhibition in experiment [1] (IC50). In experiment [2], the IC50 came out at 1880 nM and the “Selectivity BD2/BD1” value came to 9.4.

For `CC[C@H]1[C@H](C)[C@@H](N=[N+]=[N-])c2cc(C(=O)OC)ccc2N1C(C)=O` [Compound 30, Methyl-(2S,3S,4R)-1-acetyl-4-azido-2-ethyl-3-methyl-1,2,3,4-tetrahydroquinoline-6-carboxylate], the IC50 in experiment [1] and in experiment [2] was greater than 20000 nM throughout.

As for `C=CCCCC(=O)Nc1ccc(-c2ccc3c(c2)[C@H](NC(=O)OC(C)C)[C@@H](C)[C@@H](CC)N3C(C)=O)cc1` [ent-XI], inhibition in experiment [1] was half-maximal at 5740 nM (IC50). In addition, in experiment [2], 2940 nM corresponded to half-maximal inhibition (IC50) and the “Selectivity BD2/BD1” value was 2.0.

For the compound `CC[C@@H]1[C@H](C)[C@@H](N=[N+]=[N-])c2cc(C(=O)OC)ccc2N1C(C)=O` (single isomer, unassigned) [ent-27], the IC50 in experiment [1] and in experiment [2] was greater than 100000 nM in each case.

For the compound `C#CCOCCOCCOCCOCc1cn([C@H]2c3cc(C(=O)OC)ccc3N(C(C)=O)[C@@H](CC)[C@@H]2C)nn1` [Compound 32, Methyl-(2S,3S,4R)-4-(4-(2,5,8,11-tetraoxatetradec-13-yn-1-yl)-1H-1,2,3-triazol-1-yl)-1-acetyl-2-ethyl-3-methyl-1,2,3,4-tetrahydroquinoline-6-carboxylate], the IC50 in experiment [1] and in experiment [2] was greater than 20000 nM in each case.

`CC[C@H]1[C@@H](C)[C@H](n2cc(-c3ccccc3)nn2)c2cc(C(=O)OC)ccc2N1C(C)=O` [Compound 28, Methyl-(2S,3R,4S)-1-acetyl-2-ethyl-3-methyl-4-(4-phenyl-1H-1,2,3-triazol-1-yl)-1,2,3,4-tetrahydroquinoline-6-carboxylate] displayed a concentration for half-maximal inhibition (IC50) in experiment [1] of 8310 nM. Further, in experiment [2], the 50% inhibitory concentration (IC50) was determined as 567 nM and the “Selectivity BD2/BD1” value came to 14.7.

As to `CC[C@H]1[C@@H](C)[C@H](N=[N+]=[N-])c2cc(-c3ccc(NC(=O)CCCCCCC(=O)NO)cc3)ccc2N1C(C)=O` [YH, N-(4-((2S,3R,4S)-1-acetyl-4-azido-2-ethyl-3-methyl-1,2,3,4-tetrahydroquinolin-6-yl)phenyl)-N-hydroxyoctanediamide], the “Selectivity BD2/BD1” value in experiment [2] is 1.6.

By IC50 is commonly meant the midpoint of a concentration-inhibition curve. A high value points to weaker potency.
